Reference: paper PMC8308836, “Albumin Nanoparticle Formulation for Heart-Targeted Drug Delivery: In Vivo Assessment of Congestive Heart Failure” (Pharmaceuticals, 2021)
Read-outs that look alike come from different tables or passages of the source.

Experiments:
[1] = 24 h post treatment; i.v. injection 50 μg/kg, CHF rats, mean ± SD (n = 3)
Method: The surgery was performed in a blinded manner as previously mentioned [22, 38]. Briefly, rats were anesthetized using 5% isoflurane, intubated, and mechanically ventilated at 80 breaths/minute. Via a left thoracotomy (through the fourth intercostal space), the LAD coronary artery was permanently ligated 2 mm from its origin with a 7/0 polypropylene suture (Ethicon Inc., Somerville, NJ, USA). […] About 48 h after ligation of the artery, injections were performed using a 27-G needle. Rats were randomized into five groups: Group 1 (n = 5) received an intravenous injection of 1 c.c. saline (Control). […] Group 3 (n = 8) received 250 μL bolus intravenous injection of 50 μg/kg MRN Lactate [39, 40]. Group 4 (n = 5) received 250 μL intravenous injection of empty NPs in the same concentration as Group 1. […] Blood was collected 24 h post injection for milrinone quantification. […]
The milrinone in plasma samples was quantified using High Performance Liquid Chromatography (HPLC) LCMS-8060 (Shimadzu). […] All samples were reconstituted in 40 µL of mobile phase A and analyzed by LC-MS/MS. […] The gradient started at 95:5 A:B. Samples were quantified using the area under the curve (AUC) and a standard curve.

[2] = test system: rat model of congestive heart failure; test: Serum safety and toxicity markers (liver and renal function); assay type: in vivo, female Lewis rats; settings: CHF rats, i.v. injection; normal range 20–61 U/L
Method: Briefly, rats were anesthetized using 5% isoflurane, intubated, and mechanically ventilated at 80 breaths/minute. Via a left thoracotomy (through the fourth intercostal space), the LAD coronary artery was permanently ligated 2 mm from its origin with a 7/0 polypropylene suture (Ethicon Inc., Somerville, NJ, USA). […] About 48 h after ligation of the artery, injections were performed using a 27-G needle. Rats were randomized into five groups: Group 1 (n = 5) received an intravenous injection of 1 c.c. saline (Control). […] Group 4 (n = 5) received 250 μL intravenous injection of empty NPs in the same concentration as Group 1. […] Various endpoint measurements were taken as described in subsequent paragraphs. At 5 days post injection, all rats were killed by euthanasia.
Blood was collected via the jugular vein from the animals using a sterile 23 G/25 mm needle in the Microtainer® serum separator tubes (Becton Dickinson, Franklin Lakes, NJ, USA) for serum separation and in Plasma-EDTA tubes (Becton Dickinson, Franklin Lakes, NJ, USA) for plasma collection. The blood was allowed to clot at room temperature for 30 min and subsequently placed on ice until centrifugation. Serum was separated by low-speed centrifugation at 1500 rpm for 15 min at 4 °C and was frozen at −80 °C until analysis. […]

[3] = test system: rat model of congestive heart failure
Method: Briefly, rats were anesthetized using 5% isoflurane, intubated, and mechanically ventilated at 80 breaths/minute. […] About 48 h after ligation of the artery, injections were performed using a 27-G needle. […] Group 3 (n = 8) received 250 μL bolus intravenous injection of 50 μg/kg MRN Lactate [39, 40]. […] Various endpoint measurements were taken as described in subsequent paragraphs.
Echocardiographic examinations were performed under inhaled isoflurane anesthesia (2.5% in oxygen, 500–700 mL/min). Transthoracic echocardiography was performed for each rat as a baseline before the surgery, 48 h post surgery, 60 min post injection, 24 h post injection, 48 h post injection, and 1-week post injection. Echocardiograms were obtained with a commercially available system (Micromaxx P04224; SonoSite, Bothell, WA, USA), equipped with a linear probe 7–13 MHz 25 mm footprint turbo transducer (P06519.11; SonoSite). Briefly, LV end-diastolic diameters (LVEDD) and end-systolic diameters (LVESD) were measured with M-mode tracings between the anterior and posterior walls from the parasternal short-axis view just below the level of the papillary muscles of the mitral valve [13]. The time of end-diastole was defined as time of maximum diameter of the LV in one heart cycle. Accordingly, end-systole was defined as the minimum diameter. Following the American Society of Echocardiology leading-edge method, two images on average were obtained in each view and averaged over three consecutive cycles [41]. The left-ventricular end-diastolic volume (LVEDV) and left-ventricular end-systolic volume (LVESV) were measured using the Teichholz formula [13].

IL-10 = test: Serum cytokine measurement by ELISA: IL-10; assay type: in vivo, female Lewis rats; settings: 1-week post treatment; i.v. injection, CHF rats, mean ± SD (n = 5)
Method: (§1) The cytokine analysis for levels of IL-6, IL-10, and tumor necrosis factor-alpha (TNF-α) was performed using commercially available ELISA kits (Abcam) according to the manufacturer’s instructions. Microtiter plates were precoated with a murine monoclonal antibody against the rat cytokine being measured. Standards of the analyte and serum samples were added in triplicate. The absorbance was read at 450 nm within 30 min of stopping the reaction and standard curves were plotted.

IL-6 = test: Serum cytokine measurement by ELISA: IL-6; assay type: in vivo, female Lewis rats; settings: 1-week post treatment; i.v. injection, CHF rats, mean ± SD (n = 5)
Method: as §1

TNF-α = test: Serum cytokine measurement by ELISA: TNF-α; assay type: in vivo, female Lewis rats; settings: 1-week post treatment; i.v. injection, CHF rats, mean ± SD (n = 5)
Method: as §1

[4] = 2 h time point; i.v., MRN dose 50 μg/kg, rat, mean ± SD (n = 4)
Method: The animals were randomized into three groups in a blinded manner. Group I (n = 6) was intravenously injected with 1 c.c. saline. […] Group III (n = 12) was intravenously injected with 250 μL of MRN Lactate containing 50 μg/kg MRN. Blood was collected from the jugular vein at the following timepoints: 0, 5, 15, 30, 45, 60, 120, and 360 min. The animals were euthanized by isoflurane/CO2. Organ tissues (heart, lungs, liver, and kidneys) were collected, washed, rinsed, and snap-frozen in liquid nitrogen.

[5] = Pharmacokinetics of milrinone in plasma after i.v. injection; assay type: in vivo, female Lewis rats; settings: MRN dose 50 μg/kg, rat
From the text: Amrinone was used as an internal standard.

[6] = i.v. injection group, 48 h Post Ligation (before treatment)
[7] = i.v. injection group, Baseline—Pre-Ligation (before treatment)
[8] = i.v. injection, 50 μg/kg milrinone, 1-week Post Injection
[9] = i.v. injection, 50 μg/kg milrinone, 60 min Post Injection
[10] = i.v. injection, 50 μg/kg milrinone, 24 h Post Injection
[11] = i.v. injection, 50 μg/kg milrinone, 48 h Post Injection

In the case of CC(O)C(=O)O.Cc1[nH]c(=O)c(C#N)cc1-c1ccncc1 [MRN Lactate, milrinone lactate], the “milrinone detected in plasma” value [1] is reported as 0.3 ± 0.1 ng/mL, the “Serum ALT level” value [2] is reported as “within the normal range” and the “Left Ventricular Ejection Fraction (LVEF)” value [3, 6] is reported as 65.3 ± 2.3%. The “Left Ventricular Fractional Shortening (LVFS)” value [3, 6] was 34.3 ± 2.7%, the “Left Ventricular Ejection Fraction (LVEF)” value [3, 7] was 88.2 ± 1.8% and the “Left Ventricular Fractional Shortening (LVFS)” value [3, 7] was 52.6 ± 2.7%. The “Left Ventricular Ejection Fraction (LVEF)” value [3, 8] was 66.1 ± 4.2%, the “Left Ventricular Fractional Shortening (LVFS)” value [3, 8] was 30.8 ± 2.8% and the “Left Ventricular Ejection Fraction (LVEF)” value [3, 9] was 80.1 ± 3.3 %. For the same compound, the “Left Ventricular Fractional Shortening (LVFS)” value [3, 9] was 45.6 ± 3.2 %, the “Left Ventricular Ejection Fraction (LVEF)” value [3, 10] was 70.6 ± 3.6% and the “Left Ventricular Fractional Shortening (LVFS)” value [3, 10] was 33.6 ± 3.9%. The “Left Ventricular Ejection Fraction (LVEF)” value [3, 11] was 64.8 ± 4.3%, the “Left Ventricular Fractional Shortening (LVFS)” value [3, 11] was 30.2 ± 3.9% and the “Serum IL-10 level” value (IL-10) was 146.1 ± 24.7 pg/mL. The “Serum IL-6 level” value (IL-6) was 39.3 ± 2.7 pg/mL, the “Serum TNF-α level” value (TNF-α) was 17.1 ± 2.8 pg/mL and the “MRN detected in heart” value [4] was 2.00 ± 1.01 ng/mL. The “MRN detected in kidneys” value [4] was 4.80 ± 0.6 ng/mL, the “MRN detected in liver” value [4] was 2.44 ± 0.23 ng/mL and the “milrinone concentration in plasma” value ([5]; 0 min) was 334.2 ng/mL. The “milrinone concentration in plasma” value ([5]; 5 min, mean ± SD (n = 4)) was 203.5 ± 45.3 ng/mL, the “milrinone concentration in plasma” value ([5]; 15 min, mean ± SD (n = 4)) was 75.4 ± 6.2 ng/mL and the “milrinone concentration in plasma” value ([5]; 30 min, mean ± SD (n = 4)) was 72.6 ± 12.4 ng/mL. The “milrinone concentration in plasma” value ([5]; 45 min, mean ± SD (n = 4)) was 22.9 ± 11.2 ng/mL, the “milrinone concentration in plasma” value ([5]; 120 min, mean ± SD (n = 4)) was 4.1 ± 1.5 ng/mL and the “milrinone concentration in plasma” value ([5]; 360 min, mean ± SD (n = 4)) was 1.6 ± 0.1 ng/mL. The AUC0-t ([5]; non-compartmental) was 104.3 ng·h/mL, the “AUC0-∞” value ([5]; non-compartmental) was 106.7 ng·h/mL and the “CL (clearance)” value ([5]; non-compartmental) was 7.83 mL/min/kg. The “MRT (mean residence time)” value ([5]; non-compartmental) was 49.1 min, the “Vss (apparent volume of distribution at steady state)” value ([5]; non-compartmental) was 0.38 L/kg and the “Vz (apparent volume of distribution at elimination)” value ([5]; non-compartmental) was 0.73 L/kg. For the same compound, the “t1/2 (half-life of plasma)” value ([5]; non-compartmental) was 64.7 min.
